Literature values as cited in patent publication US12167995B2, “[((1R,2S,5R)-2-isopropyl-5-methyl-cyclohexanecarbonyl)-amino]-acetic acid isopropyl ester for treatment of chronic cough” (AXALBION SA, priority 2019, dated 2024).
“Also recorded” adds a separate entry of the source. Like-named read-outs stand apart in the source and are kept apart here.

Experiments:
[1] = test system: refractory chronic cough (RCC); settings: cited from earlier work
[2] = test system: acute cough induced by capsaicin; settings: MK-7264: in RCC patients or in healthy subjects; cited from earlier work
[3] = test system: isolated guinea pig vagal nerves; settings: Maher et al., 2014; cited from earlier work

| SMILES | patients with adverse events related to taste (dysgeusia, hypogeusia, or ageusia) ([1]; 50 mg per day) [%] | patients with adverse events related to taste (dysgeusia, hypogeusia, or ageusia) ([1]; 1200 mg per day) [%] | effect on VAS scores in RCC patients ([1]; human, in vivo) | effect on cough frequency in RCC patients ([1]; human, in vivo) | effect on acute cough induced by capsaicin [2] | TRPM8 dependence of inhibition of capsaicin-induced response [3] |
| --- | --- | --- | --- | --- | --- | --- |
| COc1cc(C(C)C)c(Oc2cnc(N)nc2N)cc1S(N)(=O)=O [MK-7264] | 81 | 100 | poorly effective in improving the VAS scores | efficient in reducing cough frequency; also recorded: efficient in decreasing cough frequency in RCC patients | not effective for acute cough induced by the tussive stimulus capsaicin | – |
| O=C(Nc1ccccc1Br)N[C@@H]1CCN(c2ccc(C(F)(F)F)cn2)C1 [SB-705498] | – | – | – | do not reduce cough frequency in RCC patients | inhibit acute cough induced by capsaicin | – |
| CC(C)[C@@H]1CC[C@@H](C)C[C@H]1O [menthol, (1R,2S,5R)-2-isopropyl-5-methyl-cyclohexanol] | – | – | – | – | – | in a TRPM8-independent way |
